Measured values from patent US7588894B2, “Use of ID4 for diagnosis and treatment of cancer” (John Wayne Cancern Institute, priority 2005, dated 2009).
“Also recorded” adds a separate entry of the source.

What was measured:
Type in all cases: cell-based
[1] = test system: ID4 promoter region in SW480; test: Methylation-specific PCR of ID4 promoter region after 5Aza treatment, SW480; details: SW480, 5 ug/mL of 5Aza for 48 hours; untreated only methylated peaks
Protocol: (§1) Cell Lines. Three CRC cell lines SW480, DLD1, and LOVO (American Type Culture Collection, Manassas, Va.) were analyzed in this study. Genomic DNA was extracted from cells as described previously (33). Total RNA was extracted with TRI Reagent (Molecular Research Center, Inc., Cincinnati, Ohio) according to the manufacturer's protocol. […] Cells were seeded at 7×10^5/T-25 flask on day zero; the culture medium was changed on day two, and cells were then treated with 5Aza at final concentrations of 5 ug/mL for 48 hours (SW480 and DLD1) and 10 ug/mL for 72 hours (DLD1). After treatment, cells were harvested for DNA and RNA as described above. Sodium bisulfite modification was applied on extracted genomic DNA of tissue specimens or cell lines for methylation-specific PCR or bisulfite sequencing as described previously (33). Detection of Hypermethylation. Methylation status of ID4 promoter region was analyzed by methylation-specific PCR and bisulfite sequencing. […] PCR products were detected and analyzed by CEQ 8000XL capillary array electrophoresis system (Beckman Coulter, Inc., Fullerton, Calif.) with CEQ 8000 software version 6.0 (Beckman Coulter) as described previously (35). Methylation status was determined by the ratio of the signal intensities of methylated and unmethylated PCR products; samples with methylated to unmethylated ratio larger than 0.2 were determined as methylated.

[2] = test system: ID4 promoter region in DLD1; test: Methylation-specific PCR of ID4 promoter region after 5Aza treatment, DLD1; details: DLD1, 10 ug/mL of 5Aza for 72 hours; untreated only methylated peaks
Protocol: as §1

[3] = test system: ID4 promoter region in DLD1; test: Bisulfite sequencing of ID4 promoter region after 5Aza treatment, DLD1; details: DLD1, 10 ug/mL of 5Aza for 72 hours
Protocol: (§2) Cell Lines. Three CRC cell lines SW480, DLD1, and LOVO (American Type Culture Collection, Manassas, Va.) were analyzed in this study. Genomic DNA was extracted from cells as described previously (33). Total RNA was extracted with TRI Reagent (Molecular Research Center, Inc., Cincinnati, Ohio) according to the manufacturer's protocol. For ID4 expression restoration study, SW480 and DLD1 were treated with DNA demethylation agent 5-aza-cytidine (5Aza), a known inhibitor of methylation, as described previously (33-35). Cells were seeded at 7×10^5/T-25 flask on day zero; the culture medium was changed on day two, and cells were then treated with 5Aza at final concentrations of 5 ug/mL for 48 hours (SW480 and DLD1) and 10 ug/mL for 72 hours (DLD1). After treatment, cells were harvested for DNA and RNA as described above.
(§3) Sodium bisulfite modification was applied on extracted genomic DNA of tissue specimens or cell lines for methylation-specific PCR or bisulfite sequencing as described previously (33).
(§4) For bisulfite sequencing, the primer set was as follows: forward, 5′-[…]-3′; and reverse, 5′-[…]-3′, with Y═C or T, R=G or A, as described previously (32). […] Sequences were read by CEQ 8000XL capillary array electrophoresis system (Beckman Coulter) with CEQ 8000 software version 6.0 (Beckman Coulter) as described previously (37).

[4] = test system: ID4 mRNA expression in SW480; test: ID4 mRNA expression by quantitative real-time reverse transcription-PCR after 5Aza treatment, SW480
Protocol: as §2
(§5) Analysis of mRNA Expression Level. Reverse-transcriptase reactions were done on 1.0 ug of extracted total RNA with Moloney murine leukemia virus reverse-transcriptase (Promega, Madison, Wis.) with oligodeoxythymidylic acid primers, as described previously (39). Quantitative real-time reverse transcription-PCR assay was done on the iCycler iQ Real-Time thermocycler detection system (Bio-Rad Laboratories, Hercules, Calif.; 39). For each PCR, the reaction mixture consisted of cDNA template synthesized by reverse-transcription from 250 ng of total RNA, 0.2 mmol/L of forward primer (5′-CGCTCACTGCGCTCAACAC-3′), 0.2 mmol/L of reverse primer (5′-TCAGGCGGCCGCACACCT-3′), and 0.6 mmol/L of fluorescence resonance energy transfer probe (5′-FAM-[…]-BHQ-3′). […] Absolute copy numbers were determined by a standard curve with serial dilutions (10^8 to 10^1 copies) of DNA containing ID4 or GAPDH cDNA sequence. […] The expression level of the housekeeping gene GAPDH was measured as an internal reference with a standard curve to determine the integrity of template RNA for all of the specimens. The ratio of ID4 and GAPDH mRNA level was calculated as follows: (absolute copy number of ID4)/(absolute copy number of GAPDH) as described previously (39).

CRC cell lines = test: mRNA expression in CRC cell lines after 5Aza treatment (summary statements)
Protocol: Cell Lines. Three CRC cell lines SW480, DLD1, and LOVO (American Type Culture Collection, Manassas, Va.) were analyzed in this study. Genomic DNA was extracted from cells as described previously (33). Total RNA was extracted with TRI Reagent (Molecular Research Center, Inc., Cincinnati, Ohio) according to the manufacturer's protocol. For ID4 expression restoration study, SW480 and DLD1 were treated with DNA demethylation agent 5-aza-cytidine (5Aza), a known inhibitor of methylation, as described previously (33-35). […]
as §5, with “Reverse-transcriptase reactions were done on 1.0 ug of extracted total RNA with Moloney murine leukemia virus reverse-transcriptase (Promega, Madison, Wis.) with oligodeoxythymidylic acid primers, as described previously (39).” left out, “The ratio of ID4 and GAPDH mRNA level was calculated as follows: (absolute copy number of ID4)/(absolute copy number of GAPDH) as described previously (39).” left out

[5] = test system: ID4 promoter region in SW480; test: Bisulfite sequencing of ID4 promoter region after 5Aza treatment, SW480; details: SW480, 5 ug/mL of 5Aza for 48 hours; nontreated cells all CpG sites methylated
Protocol: as §2, §3, §4

[6] = test system: ID4 mRNA expression in DLD1; test: ID4 mRNA expression by quantitative real-time reverse transcription-PCR after 5Aza treatment, DLD1
Protocol: as §2
Analysis of mRNA Expression Level. Reverse-transcriptase reactions were done on 1.0 ug of extracted total RNA with Moloney murine leukemia virus reverse-transcriptase (Promega, Madison, Wis.) with oligodeoxythymidylic acid primers, as described previously (39). Quantitative real-time reverse transcription-PCR assay was done on the iCycler iQ Real-Time thermocycler detection system (Bio-Rad Laboratories, Hercules, Calif.; 39). For each PCR, the reaction mixture consisted of cDNA template synthesized by reverse-transcription from 250 ng of total RNA, 0.2 mmol/L of forward primer (5′-CGCTCACTGCGCTCAACAC-3′), 0.2 mmol/L of reverse primer (5′-TCAGGCGGCCGCACACCT-3′), and 0.6 mmol/L of fluorescence resonance energy transfer probe (5′-FAM-[…]-BHQ-3′). PCR amplification was done in a 20-ul reaction volume for 45 cycles of 30 seconds at 94° C., 30 seconds at 58° C., and 30 seconds at 72° C. with 3 mmol/L of Mg^2+. Absolute copy numbers were determined by a standard curve with serial dilutions (10^8 to 10^1 copies) of DNA containing ID4 or GAPDH cDNA sequence. Analysis without templates was done as a negative control in each study. PCR products were electrophoresed on 2% agarose gels to confirm correct product size and absence of nonspecific bands. The expression level of the housekeeping gene GAPDH was measured as an internal reference with a standard curve to determine the integrity of template RNA for all of the specimens. The ratio of ID4 and GAPDH mRNA level was calculated as follows: (absolute copy number of ID4)/(absolute copy number of GAPDH) as described previously (39).

SMILES: Nc1ncn([C@@H]2O[C@H](CO)[C@@H](O)[C@H]2O)c(=O)n1 [5Aza, 5-aza-cytidine]
- Methylation-specific PCR result of ID4 promoter [1]: Unmethylated peaks appeared; also recorded: showed an unmethylation-specific peak
- Methylation-specific PCR result of ID4 promoter [2]: Unmethylated peaks appeared; also recorded: produced an unmethylation-specific peak
- Methylation status of CpG sites by bisulfite sequencing [3]: CpG sites partially lost their methylation
- ID4 copy number ([4]; SW480, 5 ug/mL of 5Aza for 48 hours, untreated undetectable (0)): 4.7×10^2 copies/250 ng of total RNA
- ID4 expression ratio (ID4 copy number)/(GAPDH copy number) ([4]; SW480, 5Aza-treated, untreated 0): 2.8 × 10^−3
- GAPDH copy number ([4]; SW480, 5Aza-treated, untreated 4.6 × 10^6): 1.7 × 10^5 copies/250 ng of total RNA
- ID4 mRNA expression in hypermethylated CRC cell lines (CRC cell lines; 5-aza-cytidine treatment): could be restored
- GAPDH mRNA (CRC cell lines; after 5Aza treatment, CRC cell lines): decreased
- Methylation status of CpG sites by bisulfite sequencing [5]: most CpG sites were changed to unmethylated form
- ID4 expression restoration ([6]; DLD1, 5 ug/mL of 5Aza for 48 hours): did not overtly restore ID4 expression
- ID4 copy number ([6]; DLD1, 10 ug/mL of 5Aza for 72 hours, untreated undetectable (0)): 4.8×10^2 copies/250 ng of total RNA
- ID4 expression ratio (ID4 copy number)/(GAPDH copy number) ([6]; DLD1, 5Aza-treated, untreated 0): 4.8 × 10^−3
- GAPDH copy number ([6]; DLD1, 5Aza-treated, untreated 5.6 × 10^5): 9.9 × 10^4 copies/250 ng of total RNA
